Measured values: PubChem BioAssay AID624344 (Sanford-Burnham Center for Chemical Genomics, 2012)
Activity calls are given as the source filed them. How the calls were made is not given here. Peptide text beside a SMILES is read from it. * marks the point of attachment. CH2Cl = ClC*

Legend:
[1] = NFkB reporter suppression in cystic fibrosis bronchial cells – cell-based, uHTS hits, panel, cytotoxicity readout, dose response (AID 624344); details: CF bronchial epithelial cells, PAF-induced NFkB reporter inhibition; with PAF, mean of runs
Cytotoxicity = assay: as above; details: CF bronchial epithelial cells, mean of runs

SMILES	IC50 [1]	IC50 (Cytotoxicity)
COc1ccc(CNc2nn3c(-c4cccc(C(=O)N(C)C)c4)cnc3s2)cc1	2.46 µM	33.6 µM
COc1ccc(C(c2nnnn2-c2ccc(OC)cc2)N2CCC(n3c(=O)[nH]c4ccccc43)CC2)cc1 (configuration not stated)	5.8 µM	11.7 µM
O=C(Nc1ccc(Oc2ccc(NC(=O)Nc3ccc([N+](=O)[O-])cc3)cc2)cc1)Nc1ccc([N+](=O)[O-])cc1	6.12 µM	27.8 µM
CC1(C)CC(=O)C(C2C3=C(CC(C)(C)CC3=O)Oc3c(Br)cc(Br)cc32)=C(O)C1 (configuration not stated)	6.19 µM	15.1 µM
O=C(c1cc([N+](=O)[O-])ccc1N1CCOCC1)N1CCN(c2ccccc2)CC1	inactive	> 79 µM (inactive)
CN(C)CCCN(C(=O)CCOc1ccccc1)c1nc2ccc(F)cc2s1	2.53 µM	12.7 µM
CCOC(=O)c1c(-c2ccccc2)oc2cc(Br)c(O)c(C=O)c12	3.05 µM	13.3 µM
C/C(=N\Nc1cc(N2CCOCC2)ncn1)c1cccc([N+](=O)[O-])c1	4.21 µM	14.4 µM
COc1ccc(OC)c(C2CC(=O)c3c([nH]c(C(=O)OC(C)C)c3C)C2)c1 (configuration not stated)	inactive	> 79 µM (inactive)
CCN1CCN(Cc2ccc(NC(=O)c3ccc(C)c(NC(=O)c4csc(-c5ccncc5)n4)c3)cc2C(F)(F)F)CC1	6.08 µM	19.9 µM
COC(=O)c1ccc(NC(=O)c2ccccc2NS(=O)(=O)c2ccccc2)cc1	4.53 µM	39 µM
CC(=O)NC(CC(C)C)C(=O)NC(Cc1ccccc1)C(=O)CCl (stereo not drawn) (Ac-Leu-Phe-CH2Cl; configuration not given here)	2.83 µM	17.6 µM
C=CCOc1c(OC)cc(/C=N/Nc2cccc(C(=O)O)c2)c(Br)c1Br	15.3 µM	44.5 µM
O=C(NCc1cccnc1)/C(=C\c1ccc(-c2cccc(Cl)c2)o1)S(=O)(=O)c1ccccc1	1.71 µM	5.33 µM
Cc1ccc(NC(=O)c2cc(C(=O)c3cc(Cl)ccc3O)cn(-c3ccc(C)cc3)c2=O)cc1	9.4 µM	53 µM (inactive)
Cc1nnc(NC(=O)Nc2ccc(Cl)c(Cl)c2)s1	2.78 µM	15.3 µM

SMILES	IC50 [1]	IC50 (Cytotoxicity)
Oc1ccc(C[C@H]2CNC(=S)N2CC2CCCN2C[C@H](Cc2ccc(O)cc2)N2C[C@H](Cc3ccc(O)cc3)N(CC3CCCCC3)C2=S)cc1 (some centres not stated)	10.3 µM	15.4 µM
COCc1cc(S(=O)c2ccc(Cl)cc2)nc(C)n1 (configuration not stated)	3.13 µM	22 µM
Cn1cccc1C(=O)NC(=O)COC(=O)c1ccc(S(C)(=O)=O)c([N+](=O)[O-])c1	5.26 µM	5.85 µM
NC(=O)c1sc2nccc(Nc3ccccc3)c2c1N	0.374 µM	40 µM
COc1cc(/C=N/NC(=O)Nc2cccc3nsnc23)cc(OC)c1OC	2.53 µM	14.7 µM
C=CCSc1nc2ccccc2n1C(=O)/C=C/c1ccc(OC)c(OC)c1	3.46 µM	62 µM (inactive)
COc1cccc(-c2ccc3ncnc(NCc4cccc(C)c4)c3c2)c1	5.66 µM	13 µM
O=C(Nc1cccc(-c2cnc3ccccc3n2)c1)c1cccc(NC(=O)c2ccco2)c1	3.68 µM	6.82 µM
NC(=S)N1OC[C@@H]2COc3ccc4ccccc4c3[C@@H]21	4.75 µM	31.2 µM
Cc1ccc(NC(=O)/C=C/c2ccco2)nc1	8.27 µM	> 79 µM (inactive)
COc1ccc(Cc2nnc(SCc3ccc([N+](=O)[O-])cc3)o2)cc1	1.76 µM	41.8 µM
Cc1ncc(CC(=O)n2cc(C(=O)c3cc(Cl)ccc3O)cn2)s1	7.56 µM	44.5 µM
CCc1ccc(Nc2n[n+](-c3ccccc3)c(-c3c(Cl)cccc3Cl)s2)cc1	5.47 µM	6.29 µM
CCCc1cc(-c2[nH]ncc2-c2ccc3c(c2)OCCCO3)c(O)cc1O	8.75 µM	25.9 µM
COc1cccc(NC(=O)Nc2nnc(CC(=O)Nc3ccccc3)s2)c1	4.89 µM	55.8 µM (inactive)
